The source made the active and inactive calls. For most assays here, no stated cut-off is given here; in the data, actives have a measured Kd and inactives only a lower limit.
Key:
[1] = target: T1, Dual specificity mitogen-activated protein kinase kinase 3 (Homo sapiens, UniProt P46734)
T1 sequence (P46734 whole entry): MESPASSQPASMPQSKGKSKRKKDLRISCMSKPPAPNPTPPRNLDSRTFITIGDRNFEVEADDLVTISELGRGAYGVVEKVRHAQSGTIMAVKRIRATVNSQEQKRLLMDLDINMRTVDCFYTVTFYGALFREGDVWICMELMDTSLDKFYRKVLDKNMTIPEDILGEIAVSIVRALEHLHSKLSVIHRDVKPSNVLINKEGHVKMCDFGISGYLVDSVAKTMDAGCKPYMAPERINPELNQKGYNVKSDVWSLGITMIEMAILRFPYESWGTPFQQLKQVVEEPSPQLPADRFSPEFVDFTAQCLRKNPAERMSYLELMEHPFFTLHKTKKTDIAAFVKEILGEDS

[2] = target: T2, Serine/threonine-protein kinase D3 (Homo sapiens, UniProt O94806)
T2 sequence (O94806 whole entry): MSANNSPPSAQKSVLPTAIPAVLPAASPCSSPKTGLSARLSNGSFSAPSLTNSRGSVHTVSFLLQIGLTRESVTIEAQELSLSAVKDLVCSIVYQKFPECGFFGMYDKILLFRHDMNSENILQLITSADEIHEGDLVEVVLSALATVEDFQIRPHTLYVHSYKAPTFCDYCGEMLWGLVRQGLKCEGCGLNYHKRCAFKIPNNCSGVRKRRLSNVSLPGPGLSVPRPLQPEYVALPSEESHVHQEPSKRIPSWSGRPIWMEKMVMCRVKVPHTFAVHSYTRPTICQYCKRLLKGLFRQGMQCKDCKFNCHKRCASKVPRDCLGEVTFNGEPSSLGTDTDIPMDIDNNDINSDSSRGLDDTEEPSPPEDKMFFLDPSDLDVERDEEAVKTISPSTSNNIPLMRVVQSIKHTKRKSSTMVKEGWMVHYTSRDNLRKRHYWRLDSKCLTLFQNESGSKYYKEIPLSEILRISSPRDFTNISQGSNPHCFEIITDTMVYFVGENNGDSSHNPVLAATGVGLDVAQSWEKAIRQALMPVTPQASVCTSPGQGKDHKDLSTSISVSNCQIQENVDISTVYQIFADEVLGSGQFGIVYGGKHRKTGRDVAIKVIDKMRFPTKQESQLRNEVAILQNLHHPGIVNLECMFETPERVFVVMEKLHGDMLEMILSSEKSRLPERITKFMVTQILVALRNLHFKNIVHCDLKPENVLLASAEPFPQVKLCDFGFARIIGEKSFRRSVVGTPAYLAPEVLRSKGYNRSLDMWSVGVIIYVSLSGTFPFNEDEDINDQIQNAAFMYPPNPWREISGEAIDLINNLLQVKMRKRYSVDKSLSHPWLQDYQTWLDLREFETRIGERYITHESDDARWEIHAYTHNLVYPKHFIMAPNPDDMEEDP

Ephrin type-B receptor 6 = target: T3, Ephrin type-B receptor 6 (Homo sapiens, UniProt O15197)
T3 sequence (O15197 whole entry): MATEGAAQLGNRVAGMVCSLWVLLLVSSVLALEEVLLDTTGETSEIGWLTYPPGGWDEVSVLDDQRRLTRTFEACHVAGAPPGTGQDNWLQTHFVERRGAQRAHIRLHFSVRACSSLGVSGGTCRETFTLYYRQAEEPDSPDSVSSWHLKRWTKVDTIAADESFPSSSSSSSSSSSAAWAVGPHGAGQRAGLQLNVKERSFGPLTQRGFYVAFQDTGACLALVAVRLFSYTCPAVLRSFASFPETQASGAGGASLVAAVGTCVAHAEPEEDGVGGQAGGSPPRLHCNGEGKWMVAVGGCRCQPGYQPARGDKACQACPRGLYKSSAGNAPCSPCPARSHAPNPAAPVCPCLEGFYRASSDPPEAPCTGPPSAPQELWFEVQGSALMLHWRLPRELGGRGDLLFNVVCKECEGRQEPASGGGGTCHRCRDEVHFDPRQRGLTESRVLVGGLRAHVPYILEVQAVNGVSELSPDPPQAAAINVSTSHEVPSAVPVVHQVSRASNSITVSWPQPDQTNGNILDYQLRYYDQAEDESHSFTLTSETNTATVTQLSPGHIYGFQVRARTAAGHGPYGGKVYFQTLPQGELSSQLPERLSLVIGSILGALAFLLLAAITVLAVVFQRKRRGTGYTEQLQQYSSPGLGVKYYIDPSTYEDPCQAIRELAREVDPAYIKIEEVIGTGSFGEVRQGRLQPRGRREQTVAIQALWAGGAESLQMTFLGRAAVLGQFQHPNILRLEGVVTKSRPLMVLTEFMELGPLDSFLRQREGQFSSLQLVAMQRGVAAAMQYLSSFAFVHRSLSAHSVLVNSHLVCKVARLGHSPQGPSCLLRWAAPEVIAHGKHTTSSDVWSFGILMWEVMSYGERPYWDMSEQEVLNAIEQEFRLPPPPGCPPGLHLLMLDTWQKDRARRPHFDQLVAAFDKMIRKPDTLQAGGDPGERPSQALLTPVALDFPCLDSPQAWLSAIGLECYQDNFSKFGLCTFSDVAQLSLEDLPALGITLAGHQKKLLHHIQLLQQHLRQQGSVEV

[3] = target: Serine/threonine-protein kinase N2 (Homo sapiens, UniProt Q16513)
Serine/threonine-protein kinase N2, sequence (Q16513 whole entry, canonical isoform): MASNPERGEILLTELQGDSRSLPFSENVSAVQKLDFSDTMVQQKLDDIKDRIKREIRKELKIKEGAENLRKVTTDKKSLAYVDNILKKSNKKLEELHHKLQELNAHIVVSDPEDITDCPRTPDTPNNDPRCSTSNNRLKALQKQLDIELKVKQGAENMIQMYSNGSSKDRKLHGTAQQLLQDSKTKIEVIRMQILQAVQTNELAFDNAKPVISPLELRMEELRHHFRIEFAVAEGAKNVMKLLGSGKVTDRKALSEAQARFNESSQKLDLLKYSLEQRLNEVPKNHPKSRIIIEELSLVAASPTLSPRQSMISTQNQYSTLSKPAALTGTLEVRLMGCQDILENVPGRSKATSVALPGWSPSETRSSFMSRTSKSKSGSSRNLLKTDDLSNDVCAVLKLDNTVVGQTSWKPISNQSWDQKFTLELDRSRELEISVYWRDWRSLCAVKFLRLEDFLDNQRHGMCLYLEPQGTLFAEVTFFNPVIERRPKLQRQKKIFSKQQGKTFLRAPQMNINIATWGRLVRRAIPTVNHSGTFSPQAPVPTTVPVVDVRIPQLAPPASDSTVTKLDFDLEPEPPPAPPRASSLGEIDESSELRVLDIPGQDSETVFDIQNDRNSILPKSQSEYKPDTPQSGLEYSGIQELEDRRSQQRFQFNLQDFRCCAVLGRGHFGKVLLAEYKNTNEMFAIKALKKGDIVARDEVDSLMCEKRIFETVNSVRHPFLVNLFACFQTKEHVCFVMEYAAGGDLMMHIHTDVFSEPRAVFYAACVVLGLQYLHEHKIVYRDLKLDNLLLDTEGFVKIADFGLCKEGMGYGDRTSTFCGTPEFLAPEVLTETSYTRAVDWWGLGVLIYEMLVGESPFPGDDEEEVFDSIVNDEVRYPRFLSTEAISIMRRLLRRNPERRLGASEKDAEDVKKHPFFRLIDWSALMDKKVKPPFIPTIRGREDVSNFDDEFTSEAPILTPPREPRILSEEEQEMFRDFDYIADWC

[4] = target: Casein kinase I isoform alpha (Homo sapiens, UniProt P48729)
Casein kinase I isoform alpha, sequence (P48729 whole entry, the tested form may be a part, canonical isoform): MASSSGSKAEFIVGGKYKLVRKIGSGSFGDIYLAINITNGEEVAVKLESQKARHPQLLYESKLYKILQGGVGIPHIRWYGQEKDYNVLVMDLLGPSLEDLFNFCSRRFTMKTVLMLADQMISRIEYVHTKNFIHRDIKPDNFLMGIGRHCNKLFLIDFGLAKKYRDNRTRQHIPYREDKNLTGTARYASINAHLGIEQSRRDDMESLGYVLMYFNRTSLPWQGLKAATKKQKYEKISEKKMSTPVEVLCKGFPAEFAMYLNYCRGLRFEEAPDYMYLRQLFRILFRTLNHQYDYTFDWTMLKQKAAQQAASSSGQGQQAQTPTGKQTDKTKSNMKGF

[5] = target: T4, AarF domain-containing protein kinase 1 (Homo sapiens, UniProt Q86TW2)
T4 sequence (Q86TW2 whole entry): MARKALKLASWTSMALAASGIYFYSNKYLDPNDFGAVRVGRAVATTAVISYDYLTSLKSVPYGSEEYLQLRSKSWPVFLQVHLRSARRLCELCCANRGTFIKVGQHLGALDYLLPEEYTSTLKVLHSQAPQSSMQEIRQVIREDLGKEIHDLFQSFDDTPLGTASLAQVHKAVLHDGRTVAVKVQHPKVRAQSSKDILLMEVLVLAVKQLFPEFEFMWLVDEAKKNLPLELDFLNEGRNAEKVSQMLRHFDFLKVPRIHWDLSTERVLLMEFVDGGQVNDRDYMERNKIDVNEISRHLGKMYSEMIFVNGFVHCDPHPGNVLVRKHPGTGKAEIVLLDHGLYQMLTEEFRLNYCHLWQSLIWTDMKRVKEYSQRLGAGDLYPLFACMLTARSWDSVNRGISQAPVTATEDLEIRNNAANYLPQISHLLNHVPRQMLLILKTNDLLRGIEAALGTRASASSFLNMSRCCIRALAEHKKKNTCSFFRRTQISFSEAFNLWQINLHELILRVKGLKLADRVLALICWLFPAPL

Row | Structure (SMILES) | Kd [1] | Kd [2] | Kd (Ephrin type-B receptor 6) | Kd [3] | Kd [4] | Kd [5]
1 | CN1CC[C@@H](c2c(O)cc(O)c3c(=O)cc(-c4ccccc4Cl)oc23)[C@@H]1CO | > 30 µM (inactive) | 2.54 µM (active) | > 30 µM (inactive) | > 30 µM (inactive) | > 30 µM (inactive) | > 30 µM (inactive)
2 | COc1cc(OC)c(/C=C/S(=O)(=O)Cc2ccc(OC)c(NCC(=O)O)c2)c(OC)c1 [RIGOSERTIB] | > 30 µM (inactive) | > 30 µM (inactive) | > 30 µM (inactive) | > 30 µM (inactive) | > 30 µM (inactive) | > 30 µM (inactive)
3 | C[C@@H](c1ccc2nccn2c1)n1nnc2ncc(-c3cnn(C)c3)nc21 [SAVOLITINIB] | > 30 µM (inactive) | > 30 µM (inactive) | > 30 µM (inactive) | > 30 µM (inactive) | > 30 µM (inactive) | > 30 µM (inactive)
4 | CC[C@@H]1C(=O)N(C)c2cnc(Nc3ccc(C(=O)N[C@H]4CC[C@H](N5CCN(CC6CC6)CC5)CC4)cc3OC)nc2N1C(C)C [VOLASERTIB] | > 30 µM (inactive) | > 30 µM (inactive) | > 30 µM (inactive) | > 30 µM (inactive) | > 30 µM (inactive) | > 30 µM (inactive)
5 | CN1CCC(COc2cnc(-c3cccc(Cn4nc(-c5cccc(C#N)c5)ccc4=O)c3)nc2)CC1 [TEPOTINIB] | > 30 µM (inactive) | > 30 µM (inactive) | > 30 µM (inactive) | > 30 µM (inactive) | > 30 µM (inactive) | > 30 µM (inactive)
6 | Cc1cc([C@@H](C)Nc2ccccc2C(=O)O)c2nc(N3CCOCC3)cc(=O)n2c1 [AZD-6482] | > 30 µM (inactive) | > 30 µM (inactive) | > 30 µM (inactive) | > 30 µM (inactive) | > 30 µM (inactive) | > 30 µM (inactive)
7 | Cc1cc(-c2cc(O)ccc2Cl)cc2nnc(Nc3ccc(OCCN4CCCC4)cc3)nc12 | > 30 µM (inactive) | 0.003 µM | 0.0006 µM (active) | > 30 µM (inactive) | > 30 µM (inactive) | > 30 µM (inactive)
8 | Cc1c(F)cc(C(=O)NC2CC2)cc1-c1ccc(C(=O)NCC(C)(C)C)cn1 [LOSMAPIMOD] | > 30 µM (inactive) | > 30 µM (inactive) | > 30 µM (inactive) | > 30 µM (inactive) | > 30 µM (inactive) | > 30 µM (inactive)
9 | O=C(c1ccc(F)c(F)c1Nc1ccc(I)cc1F)N1CC(O)([C@@H]2CCCCN2)C1 [COBIMETINIB] | > 30 µM (inactive) | > 30 µM (inactive) | > 30 µM (inactive) | > 30 µM (inactive) | > 30 µM (inactive) | > 30 µM (inactive)
10 | CNS(=O)(=O)Nc1nccc(Cc2c(C)c3ccc(Oc4ncccn4)cc3oc2=O)c1F [AVUTOMETINIB] | > 30 µM (inactive) | > 30 µM (inactive) | > 30 µM (inactive) | > 30 µM (inactive) | > 30 µM (inactive) | > 30 µM (inactive)
11 | Cc1ccc(S(=O)(=O)Nc2nc3ccccc3nc2Nc2ccc3nsnc3c2)cc1 | > 30 µM (inactive) | > 30 µM (inactive) | > 30 µM (inactive) | > 30 µM (inactive) | > 30 µM (inactive) | > 30 µM (inactive)
12 | CN1CCC(CNc2ccc3ncc(-c4cccc(OC(F)(F)F)c4)n3n2)CC1 [SGI-1776] | > 30 µM (inactive) | > 30 µM (inactive) | > 30 µM (inactive) | > 30 µM (inactive) | > 30 µM (inactive) | > 30 µM (inactive)
13 | CCCS(=O)(=O)Nc1ccc(F)c(C(=O)c2c[nH]c3ncc(-c4ccc(Cl)cc4)cc23)c1F [VEMURAFENIB] | > 30 µM (inactive) | > 30 µM (inactive) | > 30 µM (inactive) | > 30 µM (inactive) | > 30 µM (inactive) | > 30 µM (inactive)

Continued, values first:

Row | Kd [1] | Kd [2] | Kd (Ephrin type-B receptor 6) | Kd [3] | Kd [4] | Kd [5] | Structure (SMILES)
14 | > 30 µM (inactive) | > 30 µM (inactive) | > 30 µM (inactive) | > 30 µM (inactive) | > 30 µM (inactive) | 0.033 µM (active) | C1=C/COCc2cc(ccc2OCCN2CCCC2)Nc2nccc(n2)-c2cccc(c2)COC/1 [PACRITINIB]
15 | > 30 µM (inactive) | > 30 µM (inactive) | > 30 µM (inactive) | > 30 µM (inactive) | > 30 µM (inactive) | > 30 µM (inactive) | COc1cc2nccc(Oc3ccc(NC(=O)Nc4cc(C)on4)c(Cl)c3)c2cc1OC [TIVOZANIB]
16 | > 30 µM (inactive) | > 30 µM (inactive) | > 30 µM (inactive) | > 30 µM (inactive) | > 30 µM (inactive) | > 30 µM (inactive) | CNC(=O)c1ccc(-c2cnc3ncc(Cc4ccc5ncccc5c4)n3n2)cc1F [CAPMATINIB]
17 | > 30 µM (inactive) | > 30 µM (inactive) | > 30 µM (inactive) | > 30 µM (inactive) | > 30 µM (inactive) | > 30 µM (inactive) | Cc1cc2c(F)c(Oc3ncnn4cc(OC[C@@H](C)OC(=O)[C@H](C)N)c(C)c34)ccc2[nH]1 [BRIVANIB ALANINATE]
18 | > 30 µM (inactive) | > 30 µM (inactive) | > 30 µM (inactive) | > 30 µM (inactive) | > 30 µM (inactive) | > 30 µM (inactive) | COc1cc(N2CCC(N3CCN(C)CC3)CC2)ccc1Nc1ncnc(Nc2ccccc2S(=O)(=O)C(C)C)n1 [ASP-3026]
19 | > 30 µM (inactive) | > 30 µM (inactive) | > 30 µM (inactive) | > 30 µM (inactive) | > 30 µM (inactive) | > 30 µM (inactive) | O=c1sn(-c2cccc3ccccc23)c(=O)n1Cc1ccccc1 [TIDEGLUSIB]
20 | > 30 µM (inactive) | > 30 µM (inactive) | > 30 µM (inactive) | > 30 µM (inactive) | > 30 µM (inactive) | > 30 µM (inactive) | C[C@@H](Nc1cc(F)cc(F)c1)c1cc(C(=O)N(C)C)cc2c(=O)cc(N3CCOCC3)oc12 [AZD-8186]
